Data published in ChEMBL document CHEMBL5042492, “Noncovalent CDK12/13 dual inhibitors-based PROTACs degrade CDK12-Cyclin K complex and induce synthetic lethality with PARP inhibitor” (Eur J Med Chem, 2022).
Calls of active or inactive are those of the source. No cut-off for these calls is given here.

Experiments:
[1] = system: MDA-MB-231; assay: Synergistic antiproliferative activity against human MDA-MB-231 cells in presence of 1 uM of Olaparib at 1 uM for 10 days by Chou-Talalay method; type: functional; details: time 10 day
[2] = system: MDA-MB-231; assay: Synergistic antiproliferative activity against human MDA-MB-231 cells in presence of 3 uM of Olaparib at 1 uM measured after 10 days by Chou-Talalay method; type: functional; details: time 10 day
[3] = system: MDA-MB-231; assay: Synergistic antiproliferative activity against human MDA-MB-231 cells in presence of 1 uM of Olaparib at 3 uM measured after 10 days by Chou-Talalay method; type: functional; details: time 10 day
[4] = system: MDA-MB-231; assay: Synergistic antiproliferative activity against human MDA-MB-231 cells in presence of 3 uM of Olaparib at 3 uM measured after 10 days by Chou-Talalay method; type: functional; details: time 10 day
[5] = biological target: T1, Protein cereblon/Cyclin-dependent kinase 13 (Homo sapiens) (UniProt Q14004+Q96SW2); assay: Protac activity at human CRBN/CDK13 in human Bel-7402 cells assessed as degradation of CDK13 at 0.1 to 30 uM measured after 24 hrs by Western blotting assay; type: cell-based; details: dose 0.1-30 µM
[6] = biological target: T1, Protein cereblon/Cyclin-dependent kinase 13 (Homo sapiens); assay: Protac activity at human CRBN/CDK13 in human MDA-MB-231 cells assessed as degradation of CDK13 at 0.1 to 30 uM measured after 24 hrs by Western blotting assay; type: cell-based; details: dose 0.1-30 µM
[7] = biological target: T2, Protein cereblon/Cyclin-K/Cyclin-dependent kinase 12 (Homo sapiens, UniProt O75909+Q9NYV4+Q96SW2); assay: Protac activity at human CRBN/CDK12/CycK in human Bel-7402 cells assessed as degradation of Cyclin H upto 30 uM measured after 24 hrs by Western blotting assay; type: cell-based; details: dose microM <=30, time 24.0 hrs
[8] = biological target: T2, Protein cereblon/Cyclin-K/Cyclin-dependent kinase 12; assay: Protac activity at human CRBN/CDK12/CycK in human MDA-MB-231 cells assessed as degradation of Cyclin H up to 30 uM measured after 24 hrs by Western blotting assay; type: cell-based; details: dose microM <=30, time 24.0 hrs
[9] = biological target: T2, Protein cereblon/Cyclin-K/Cyclin-dependent kinase 12; assay: Protac activity at human CRBN/CDK12/CycK in human Bel-7402 cells assessed as degradation of Cyclin T1 upto 30 uM measured after 24 hrs by Western blotting assay; type: cell-based; details: dose microM <=30, time 24.0 hrs
[10] = biological target: T2, Protein cereblon/Cyclin-K/Cyclin-dependent kinase 12; assay: Protac activity at human CRBN/CDK12/CycK in human MDA-MB-231 cells assessed as degradation of Cyclin T1 up to 30 uM measured after 24 hrs by Western blotting assay; type: cell-based; details: dose microM <=30, time 24.0 hrs
[11] = biological target: T2, Protein cereblon/Cyclin-K/Cyclin-dependent kinase 12; assay: Protac activity at human CRBN/CDK12/CycK in human Bel-7402 cells assessed as degradation of CK1alpha upto 30 uM measured after 24 hrs by Western blotting assay; type: cell-based; details: dose microM <=30, time 24.0 hrs
[12] = biological target: T2, Protein cereblon/Cyclin-K/Cyclin-dependent kinase 12; assay: Protac activity at human CRBN/CDK12/CycK in human MDA-MB-231 cells assessed as degradation of CK1alpha up to 30 uM measured after 24 hrs by Western blotting assay; type: cell-based; details: dose microM <=30, time 24.0 hrs
[13] = biological target: T2, Protein cereblon/Cyclin-K/Cyclin-dependent kinase 12; assay: Protac activity at human CRBN/CDK12/CycK in human Bel-7402 cells assessed as degradation of GSPT1 upto 30 uM measured after 24 hrs by Western blotting assay; type: cell-based; details: dose microM <=30, time 24.0 hrs
[14] = biological target: T2, Protein cereblon/Cyclin-K/Cyclin-dependent kinase 12; assay: Protac activity at human CRBN/CDK12/CycK in human MDA-MB-231 cells assessed as degradation of GSPT1 up to 30 uM measured after 24 hrs by Western blotting assay; type: cell-based; details: dose microM <=30, time 24.0 hrs
[15] = biological target: T2, Protein cereblon/Cyclin-K/Cyclin-dependent kinase 12; assay: Protac activity at human CRBN/CDK12/CycK in human MDA-MB-231 cells assessed as downregulation of Mcl-1 level upto 30 uM measured after 24 hrs by Western blotting assay; type: cell-based; details: dose microM <=30, time 24.0 hrs
[16] = biological target: T2, Protein cereblon/Cyclin-K/Cyclin-dependent kinase 12; assay: Protac activity at human CRBN/CDK12/CycK in human Bel-7402 cells assessed as degradation of CDK12 at 1 to 3 uM for 24 hrs in presence of MG132 by Western blotting assay; type: cell-based; details: dose 1-3 µM
[17] = biological target: T2, Protein cereblon/Cyclin-K/Cyclin-dependent kinase 12; assay: Protac activity at human CRBN/CDK12/CycK in human Bel-7402 cells assessed as degradation of CycK at 1 to 3 uM for 24 hrs in presence of MG132 by Western blotting assay; type: cell-based; details: dose 1-3 µM
[18] = biological target: T2, Protein cereblon/Cyclin-K/Cyclin-dependent kinase 12; assay: Protac activity at human CRBN/CDK12/CycK in human MDA-MB-231 cells assessed as degradation of CDK12 at 1 to 3 uM for 24 hrs in presence of MG132 by Western blotting assay; type: cell-based; details: dose 1-3 µM
[19] = biological target: T2, Protein cereblon/Cyclin-K/Cyclin-dependent kinase 12; assay: Protac activity at human CRBN/CDK12/CycK in human MDA-MB-231 cells assessed as degradation of CycK a 1 to 3 uM for 24 hrs in presence of MG132 by Western blotting assay; type: cell-based; details: dose 1-3 µM
[20] = biological target: T2, Protein cereblon/Cyclin-K/Cyclin-dependent kinase 12; assay: Protac activity at human CRBN/CDK12/CycK in human Bel-7402 cells assessed as CDK12 mRNA expression measured after 6 hrs by RT-qPCR method; type: cell-based
[21] = biological target: T2, Protein cereblon/Cyclin-K/Cyclin-dependent kinase 12; assay: Protac activity at human CRBN/CDK12/CycK in human MDA-MB-231 cells assessed as CDK12 mRNA expression measured after 6 hrs by RT-qPCR method; type: cell-based
[22] = biological target: T2, Protein cereblon/Cyclin-K/Cyclin-dependent kinase 12; assay: Protac activity at human CRBN/CDK12/CycK in human Bel-7402 cells assessed as CycK mRNA expression measured after 6 hrs by RT-qPCR method; type: cell-based
[23] = biological target: T2, Protein cereblon/Cyclin-K/Cyclin-dependent kinase 12; assay: Protac activity at human CRBN/CDK12/CycK in human MDA-MB-231 cells assessed as CycK mRNA expression measured after 6 hrs by RT-qPCR method; type: cell-based
[24] = system: MDA-MB-231; assay: Antiproliferative activity against human MDA-MB-231 cells at 1 uM for 10 days by SRB staining based clone formation assay relative to control; type: functional; details: MDA-MB-231, 240 h, time 10 day
[25] = system: MDA-MB-231; assay: Antiproliferative activity against human MDA-MB-231 cells at 3 uM for 10 days by SRB staining based clone formation assay relative to control; type: functional; details: MDA-MB-231, 240 h, time 10 day

T2 sequence (O75909 whole entry, looked up): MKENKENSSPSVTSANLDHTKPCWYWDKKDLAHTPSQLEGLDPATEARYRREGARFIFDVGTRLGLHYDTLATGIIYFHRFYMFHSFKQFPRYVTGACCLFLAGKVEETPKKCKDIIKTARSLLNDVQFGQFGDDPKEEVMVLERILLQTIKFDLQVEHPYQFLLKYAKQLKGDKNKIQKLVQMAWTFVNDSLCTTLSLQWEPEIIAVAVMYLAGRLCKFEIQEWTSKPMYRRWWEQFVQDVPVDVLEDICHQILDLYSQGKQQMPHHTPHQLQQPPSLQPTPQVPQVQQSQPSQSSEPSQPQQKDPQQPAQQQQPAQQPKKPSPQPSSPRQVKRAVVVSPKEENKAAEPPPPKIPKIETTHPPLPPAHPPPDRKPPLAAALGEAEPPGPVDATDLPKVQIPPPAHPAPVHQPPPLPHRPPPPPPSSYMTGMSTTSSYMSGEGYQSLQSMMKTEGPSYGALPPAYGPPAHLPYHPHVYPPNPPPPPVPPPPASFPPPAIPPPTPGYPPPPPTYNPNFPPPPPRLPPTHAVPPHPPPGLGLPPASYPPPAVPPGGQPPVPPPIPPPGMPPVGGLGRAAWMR
T2 sequence (Q96SW2 whole entry, looked up): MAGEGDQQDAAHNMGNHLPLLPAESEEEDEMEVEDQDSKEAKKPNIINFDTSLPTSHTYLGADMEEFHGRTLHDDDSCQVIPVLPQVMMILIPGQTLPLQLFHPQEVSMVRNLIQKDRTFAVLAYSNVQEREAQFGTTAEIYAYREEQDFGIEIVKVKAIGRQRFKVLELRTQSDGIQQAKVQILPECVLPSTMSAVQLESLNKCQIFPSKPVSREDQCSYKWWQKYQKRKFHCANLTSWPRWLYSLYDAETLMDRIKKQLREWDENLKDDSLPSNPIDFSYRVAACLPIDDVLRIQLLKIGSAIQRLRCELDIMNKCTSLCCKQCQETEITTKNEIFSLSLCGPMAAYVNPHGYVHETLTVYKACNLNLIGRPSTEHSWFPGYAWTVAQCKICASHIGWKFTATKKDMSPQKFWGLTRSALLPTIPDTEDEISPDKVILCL
T2 sequence (Q9NYV4 whole entry, looked up): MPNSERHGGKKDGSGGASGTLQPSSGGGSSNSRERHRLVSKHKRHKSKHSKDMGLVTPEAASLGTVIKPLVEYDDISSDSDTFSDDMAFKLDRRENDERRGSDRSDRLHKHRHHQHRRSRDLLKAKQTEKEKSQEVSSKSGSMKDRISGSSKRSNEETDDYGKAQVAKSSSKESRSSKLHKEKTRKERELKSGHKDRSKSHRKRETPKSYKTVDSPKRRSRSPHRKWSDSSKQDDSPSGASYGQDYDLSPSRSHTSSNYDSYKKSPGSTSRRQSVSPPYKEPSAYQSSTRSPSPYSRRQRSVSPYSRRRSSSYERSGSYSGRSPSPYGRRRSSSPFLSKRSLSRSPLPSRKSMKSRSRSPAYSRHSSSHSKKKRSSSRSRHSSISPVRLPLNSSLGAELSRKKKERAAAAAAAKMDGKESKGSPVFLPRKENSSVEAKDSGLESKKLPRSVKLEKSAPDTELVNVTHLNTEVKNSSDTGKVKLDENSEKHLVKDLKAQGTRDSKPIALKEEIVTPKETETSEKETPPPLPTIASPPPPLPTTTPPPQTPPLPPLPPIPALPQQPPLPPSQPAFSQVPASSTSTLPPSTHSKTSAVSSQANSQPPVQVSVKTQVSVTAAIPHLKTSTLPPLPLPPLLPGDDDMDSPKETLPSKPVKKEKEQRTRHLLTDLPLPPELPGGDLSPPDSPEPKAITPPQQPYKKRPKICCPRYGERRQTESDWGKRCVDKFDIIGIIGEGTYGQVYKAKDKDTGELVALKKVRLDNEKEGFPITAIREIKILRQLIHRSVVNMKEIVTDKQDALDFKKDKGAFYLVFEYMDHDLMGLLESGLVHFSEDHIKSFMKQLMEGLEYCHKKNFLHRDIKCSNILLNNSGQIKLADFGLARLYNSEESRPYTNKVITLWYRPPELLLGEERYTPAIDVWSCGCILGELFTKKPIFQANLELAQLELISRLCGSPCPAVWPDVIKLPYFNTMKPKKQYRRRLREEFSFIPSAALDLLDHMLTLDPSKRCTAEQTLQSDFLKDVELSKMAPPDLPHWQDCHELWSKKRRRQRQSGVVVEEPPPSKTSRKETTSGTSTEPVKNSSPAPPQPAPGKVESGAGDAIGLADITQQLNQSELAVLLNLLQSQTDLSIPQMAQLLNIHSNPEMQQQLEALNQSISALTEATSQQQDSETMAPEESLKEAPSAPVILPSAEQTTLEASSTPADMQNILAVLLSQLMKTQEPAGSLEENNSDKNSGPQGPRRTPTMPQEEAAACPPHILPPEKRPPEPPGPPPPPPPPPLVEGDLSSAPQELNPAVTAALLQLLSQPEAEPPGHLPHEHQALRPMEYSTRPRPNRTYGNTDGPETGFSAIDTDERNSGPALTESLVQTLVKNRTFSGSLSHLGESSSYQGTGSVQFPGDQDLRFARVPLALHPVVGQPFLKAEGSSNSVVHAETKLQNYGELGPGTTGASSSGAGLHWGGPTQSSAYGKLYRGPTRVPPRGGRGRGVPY
T1 sequence (Q14004 whole entry, looked up): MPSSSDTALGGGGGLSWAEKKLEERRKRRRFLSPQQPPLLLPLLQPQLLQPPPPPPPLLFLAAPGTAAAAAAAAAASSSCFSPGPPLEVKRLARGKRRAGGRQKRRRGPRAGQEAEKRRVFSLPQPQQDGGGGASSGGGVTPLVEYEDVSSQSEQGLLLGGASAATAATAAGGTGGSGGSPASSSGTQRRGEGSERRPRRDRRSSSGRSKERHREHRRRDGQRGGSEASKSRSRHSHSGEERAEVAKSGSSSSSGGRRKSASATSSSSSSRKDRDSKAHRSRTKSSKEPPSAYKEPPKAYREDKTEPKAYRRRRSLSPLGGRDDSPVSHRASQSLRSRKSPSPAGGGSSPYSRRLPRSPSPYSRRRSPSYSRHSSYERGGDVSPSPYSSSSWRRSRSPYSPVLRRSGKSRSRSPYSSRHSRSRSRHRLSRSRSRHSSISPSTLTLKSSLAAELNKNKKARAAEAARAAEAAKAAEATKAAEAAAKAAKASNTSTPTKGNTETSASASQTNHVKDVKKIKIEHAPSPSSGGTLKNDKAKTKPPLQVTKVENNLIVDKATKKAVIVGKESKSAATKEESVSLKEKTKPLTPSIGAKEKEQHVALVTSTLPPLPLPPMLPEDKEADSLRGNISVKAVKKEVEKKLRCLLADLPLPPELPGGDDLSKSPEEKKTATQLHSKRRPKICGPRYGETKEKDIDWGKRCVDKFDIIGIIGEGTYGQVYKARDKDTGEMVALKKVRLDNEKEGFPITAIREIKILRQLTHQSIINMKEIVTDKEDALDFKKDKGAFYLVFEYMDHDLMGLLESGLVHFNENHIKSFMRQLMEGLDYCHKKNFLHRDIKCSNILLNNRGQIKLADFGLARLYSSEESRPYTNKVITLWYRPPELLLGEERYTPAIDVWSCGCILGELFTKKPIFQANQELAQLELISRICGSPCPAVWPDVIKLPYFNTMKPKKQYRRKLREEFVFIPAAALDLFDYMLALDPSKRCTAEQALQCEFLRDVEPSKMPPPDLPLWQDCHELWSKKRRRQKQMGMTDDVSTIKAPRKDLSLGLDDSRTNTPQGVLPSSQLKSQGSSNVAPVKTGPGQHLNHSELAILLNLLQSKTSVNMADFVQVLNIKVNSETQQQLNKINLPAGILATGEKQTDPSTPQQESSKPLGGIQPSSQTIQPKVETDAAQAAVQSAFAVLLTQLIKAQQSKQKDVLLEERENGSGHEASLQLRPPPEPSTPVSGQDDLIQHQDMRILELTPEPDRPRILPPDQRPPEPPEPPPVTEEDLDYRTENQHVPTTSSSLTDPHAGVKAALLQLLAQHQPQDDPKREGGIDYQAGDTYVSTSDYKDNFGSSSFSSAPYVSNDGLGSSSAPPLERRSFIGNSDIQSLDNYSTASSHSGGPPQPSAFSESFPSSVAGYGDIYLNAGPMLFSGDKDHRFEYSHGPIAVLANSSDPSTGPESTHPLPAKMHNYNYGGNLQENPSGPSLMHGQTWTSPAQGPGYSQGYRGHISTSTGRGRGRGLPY
T1 sequence (Q96SW2 whole entry, looked up): as the sequence (Q96SW2 whole entry, looked up) above

`CC(C)n1cnc2c(NCc3nc4cc(F)c(NCCCCCCCCNC(=O)COc5cccc6c5C(=O)N(C5CCC(=O)NC5=O)C6=O)cc4[nH]3)nc(N3CCOCC3)nc21` (stereo not given) showed a CI [1] of 0.65, a CI [2] of 0.75 and a CI [3] of 0.29. For the same compound, the CI [4] was 0.62, the Activity [5] was “Active” and the Activity [6] was “inactive”. For the same compound, the Activity [7] was “inactive”, the Activity [8] was “inactive” and the Activity [9] was “inactive”. For the same compound, the Activity [10] was “inactive”, the Activity [11] was “inactive” and the Activity [12] was “inactive”. The Activity [13] was “inactive”, the Activity [14] was “inactive” and the Activity [15] was “inactive”. For the same compound, the Activity [16] was “inactive”, the Activity [17] was “inactive” and the Activity [18] was “inactive”. The Activity [19] was “inactive”, the Activity [20] was “inactive” and the Activity [21] was “inactive”. The Activity [22] was “inactive”, the Activity [23] was “inactive” and the inhibition at 1 µM [24] was 1.05%. It also gave an inhibition at 3 µM [25] of 6.47%.
